ChEMBL document CHEMBL5465560, “Selectivity Literature for EUbOPEN Chemogenomic Library” (2024)
Blank lines part the entries; values can stand above or below the compound they belong to.

What was measured:
[1] = target: Casein kinase I isoform alpha (Homo sapiens, UniProt P48729); assay: Selectivity interaction (Kinase panel (literature)) EUB0001199aCl CSNK1A1; conditions: at 1 µM
[2] = target: 5'-AMP-activated protein kinase catalytic subunit alpha-1 (Homo sapiens, UniProt Q13131); assay: Selectivity interaction (ProQinase) EUB0000171b PRKAA1
[3] = target: Serine/threonine-protein kinase pim-3 (Homo sapiens) (UniProt Q86V86); assay: Selectivity interaction (Kinase panel (DSF assay)) EUB0001559a PIM3
[4] = target: T1, Serine/threonine-protein kinase BRSK2 (Homo sapiens) (UniProt Q8IWQ3); assay: Selectivity interaction (KinomeScan (DiscoverX)) EUB0000045b BRSK2
T1 sequence (whole entry): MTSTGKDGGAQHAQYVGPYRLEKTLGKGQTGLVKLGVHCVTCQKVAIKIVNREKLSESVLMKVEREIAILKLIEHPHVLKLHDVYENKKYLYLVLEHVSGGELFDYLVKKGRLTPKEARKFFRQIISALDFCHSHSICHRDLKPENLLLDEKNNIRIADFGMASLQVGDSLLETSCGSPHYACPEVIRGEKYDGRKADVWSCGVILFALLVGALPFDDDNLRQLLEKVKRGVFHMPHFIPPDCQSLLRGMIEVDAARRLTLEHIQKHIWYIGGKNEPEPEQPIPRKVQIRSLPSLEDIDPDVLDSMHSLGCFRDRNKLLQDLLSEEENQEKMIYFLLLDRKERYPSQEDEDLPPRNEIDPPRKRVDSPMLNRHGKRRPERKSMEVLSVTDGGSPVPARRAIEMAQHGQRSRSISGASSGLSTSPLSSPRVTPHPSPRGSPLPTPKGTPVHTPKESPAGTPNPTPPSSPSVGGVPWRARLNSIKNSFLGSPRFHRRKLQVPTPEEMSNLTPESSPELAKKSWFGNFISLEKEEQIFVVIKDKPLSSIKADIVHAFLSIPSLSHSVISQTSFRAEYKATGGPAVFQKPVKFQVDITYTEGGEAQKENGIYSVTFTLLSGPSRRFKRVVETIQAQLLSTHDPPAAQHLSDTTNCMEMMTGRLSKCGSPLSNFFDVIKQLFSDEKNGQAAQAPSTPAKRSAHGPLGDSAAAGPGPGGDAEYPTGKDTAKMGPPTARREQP

[5] = target: T2, EKC/KEOPS complex subunit TP53RK (Homo sapiens) (UniProt Q96S44); assay: Selectivity interaction (Kinase panel (KiNativ target engagement assay in Jurkat cells)) EUB0001635a TP53RK; type: cell-based; conditions: Selectivity number of off-targets 0.0, Selectivity number of targets 233.0, Source Knowledge https://www.sciencedirect.com/science/article/pii/S2451945619300674?via%3Dihub, at 1 µM
T2 sequence (whole entry): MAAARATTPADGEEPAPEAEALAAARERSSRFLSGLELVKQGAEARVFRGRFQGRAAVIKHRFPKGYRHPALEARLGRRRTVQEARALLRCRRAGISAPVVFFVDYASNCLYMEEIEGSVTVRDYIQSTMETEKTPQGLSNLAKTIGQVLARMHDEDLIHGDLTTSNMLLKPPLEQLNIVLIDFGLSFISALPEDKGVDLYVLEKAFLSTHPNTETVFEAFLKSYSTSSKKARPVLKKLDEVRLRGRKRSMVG

[6] = target: T3, Mitogen-activated protein kinase kinase kinase 6 (Homo sapiens) (UniProt O95382); conditions: at 10 µM
T3 sequence (whole entry): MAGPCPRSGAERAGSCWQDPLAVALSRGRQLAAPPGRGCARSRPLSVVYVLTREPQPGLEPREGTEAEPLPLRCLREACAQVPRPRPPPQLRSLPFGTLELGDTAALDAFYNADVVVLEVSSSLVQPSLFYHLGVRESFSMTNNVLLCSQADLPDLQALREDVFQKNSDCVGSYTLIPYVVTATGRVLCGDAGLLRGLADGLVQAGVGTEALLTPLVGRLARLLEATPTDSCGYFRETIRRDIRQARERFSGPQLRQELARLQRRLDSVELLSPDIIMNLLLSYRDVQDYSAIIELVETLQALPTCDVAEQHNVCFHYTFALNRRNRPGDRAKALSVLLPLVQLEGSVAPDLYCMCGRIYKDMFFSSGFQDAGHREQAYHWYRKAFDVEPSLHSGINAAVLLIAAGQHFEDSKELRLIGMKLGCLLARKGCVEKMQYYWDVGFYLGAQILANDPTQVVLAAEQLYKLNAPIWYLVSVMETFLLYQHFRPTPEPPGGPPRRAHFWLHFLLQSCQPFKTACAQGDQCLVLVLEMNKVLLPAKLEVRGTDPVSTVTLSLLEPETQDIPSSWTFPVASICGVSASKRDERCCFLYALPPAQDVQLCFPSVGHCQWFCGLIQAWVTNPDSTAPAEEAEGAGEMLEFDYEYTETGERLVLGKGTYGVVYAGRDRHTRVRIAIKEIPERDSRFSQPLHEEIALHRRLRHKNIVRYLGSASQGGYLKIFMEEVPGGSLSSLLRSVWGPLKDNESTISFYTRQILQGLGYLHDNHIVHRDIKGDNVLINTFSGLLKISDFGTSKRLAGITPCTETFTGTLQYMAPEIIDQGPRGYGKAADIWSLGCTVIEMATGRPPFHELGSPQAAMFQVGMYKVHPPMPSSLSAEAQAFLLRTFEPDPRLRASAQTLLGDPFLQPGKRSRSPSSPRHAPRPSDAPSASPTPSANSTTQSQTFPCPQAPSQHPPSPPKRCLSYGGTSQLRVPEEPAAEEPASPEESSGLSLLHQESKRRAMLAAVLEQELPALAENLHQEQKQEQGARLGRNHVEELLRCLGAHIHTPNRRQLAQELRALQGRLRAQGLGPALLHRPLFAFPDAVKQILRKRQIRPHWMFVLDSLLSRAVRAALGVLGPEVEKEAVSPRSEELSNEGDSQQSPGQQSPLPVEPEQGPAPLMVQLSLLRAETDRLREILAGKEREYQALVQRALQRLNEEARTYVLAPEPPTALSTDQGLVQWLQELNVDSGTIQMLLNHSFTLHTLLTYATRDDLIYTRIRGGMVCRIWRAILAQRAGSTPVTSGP

[7] = target: Cyclin-dependent kinase 8 (Homo sapiens, UniProt P49336); assay: Selectivity interaction (KinomeScan (DiscoverX)) EUB0001619a CDK8; conditions: at 1 µM
Cyclin-dependent kinase 8, sequence (P49336 whole entry): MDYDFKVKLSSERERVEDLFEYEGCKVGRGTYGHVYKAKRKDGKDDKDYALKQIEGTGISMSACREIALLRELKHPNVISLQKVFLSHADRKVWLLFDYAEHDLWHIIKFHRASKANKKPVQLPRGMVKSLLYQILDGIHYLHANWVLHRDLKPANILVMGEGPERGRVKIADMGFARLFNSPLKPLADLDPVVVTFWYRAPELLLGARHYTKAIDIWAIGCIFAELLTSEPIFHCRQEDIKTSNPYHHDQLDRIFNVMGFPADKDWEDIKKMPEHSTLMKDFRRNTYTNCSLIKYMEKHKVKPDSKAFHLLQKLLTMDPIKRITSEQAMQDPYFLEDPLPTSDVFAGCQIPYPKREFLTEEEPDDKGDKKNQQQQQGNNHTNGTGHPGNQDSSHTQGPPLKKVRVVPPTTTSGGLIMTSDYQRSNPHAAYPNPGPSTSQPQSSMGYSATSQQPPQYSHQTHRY

5'-AMP-activated protein kinase catalytic subunit alpha-1, sequence (Q13131 whole entry, looked up): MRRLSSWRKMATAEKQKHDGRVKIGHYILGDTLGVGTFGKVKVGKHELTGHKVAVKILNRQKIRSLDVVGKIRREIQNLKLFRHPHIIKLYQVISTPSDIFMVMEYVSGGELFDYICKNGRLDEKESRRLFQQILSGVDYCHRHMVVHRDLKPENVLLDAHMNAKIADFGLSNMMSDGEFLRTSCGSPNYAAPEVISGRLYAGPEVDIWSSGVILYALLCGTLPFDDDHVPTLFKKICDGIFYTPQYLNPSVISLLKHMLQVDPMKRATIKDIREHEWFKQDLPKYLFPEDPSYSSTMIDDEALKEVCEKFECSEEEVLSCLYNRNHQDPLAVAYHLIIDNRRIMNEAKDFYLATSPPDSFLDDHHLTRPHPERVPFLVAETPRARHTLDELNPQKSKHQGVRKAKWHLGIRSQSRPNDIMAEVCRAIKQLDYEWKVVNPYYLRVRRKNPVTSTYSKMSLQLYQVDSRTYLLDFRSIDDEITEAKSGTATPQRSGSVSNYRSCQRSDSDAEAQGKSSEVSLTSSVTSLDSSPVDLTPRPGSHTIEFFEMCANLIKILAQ
Casein kinase I isoform alpha, sequence (P48729 2-337 limits assumed): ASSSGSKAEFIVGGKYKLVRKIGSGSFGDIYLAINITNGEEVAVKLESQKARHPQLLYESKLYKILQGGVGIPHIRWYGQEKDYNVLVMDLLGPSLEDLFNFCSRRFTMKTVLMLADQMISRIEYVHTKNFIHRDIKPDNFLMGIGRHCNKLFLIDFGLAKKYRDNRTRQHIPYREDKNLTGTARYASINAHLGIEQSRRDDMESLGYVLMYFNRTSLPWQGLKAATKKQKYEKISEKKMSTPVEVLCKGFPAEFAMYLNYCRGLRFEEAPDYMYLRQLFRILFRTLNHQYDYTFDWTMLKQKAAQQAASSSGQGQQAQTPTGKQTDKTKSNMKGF

% of inhibition [1]: 51%
Compound: CN1Cc2nccc(-c3cn(C)nc3-c3ccc(F)cc3)c2C1=O

% of control ([2]; at 1 µM): 100%
% of control ([2]; at 5 µM): 93%
Compound: C=CC(=O)Nc1cccc(C(=O)Nc2ccc(Nc3cc(-c4[nH]c(SC)nc4C)ccn3)cc2)c1

dTM [3]: -0.4 K
Compound: CN(C(=O)c1cnn2cccnc12)c1cc2c(cc1N1CCOCC1)C(=O)N(C[C@@H](F)C(C)(C)O)C2

Compound: C=CC(=O)Nc1cc(-n2c(=O)ccc3cnc4ccc(-c5ccc(NS(C)(=O)=O)cc5)cc4c32)ccc1C
% of control ([4]; at 1 µM): 84%
% of control ([4]; at 10 µM): 100%

Compound: C=CC(=O)Nc1ccc(C(=O)Nc2[nH]nc3c2CN(C(=O)N[C@H](CN(C)C)c2ccccc2)C3(C)C)cc1
% of engagement [5]: -14.9%

Compound: Cc1cc([C@@H](C)Nc2ccccc2C(=O)O)c2nc(N3CCOCC3)cc(=O)n2c1 [AZD-6482]
% of control [6]: 95%

Compound: N#Cc1cccc(-c2c[nH]c3ncnc(N4CCOCC4)c23)c1
% of control [7]: 80%
